The results in this text go back to patent US20240368655A1, “CLICK HANDLE-MODIFIED DEOXY-FLUOROARABINO NUCLEIC ACID AS A SYNTHETIC GENETIC POLYMER CAPABLE OF POST-POLYMERIZATION FUNCTIONALIZATION” (THE TRUSTEES OF BOSTON COLLEGE, priority 2023, published 2024).

Entries after “also recorded” stand apart in the source; their conditions may differ.

This test deals with T1, Thermococcus gorgonarius (Tgo) DNA polymerase (Thermococcus gorgonarius, UniProt P56689).
T1 construct: made in house
T1 sequence (P56689 1-773): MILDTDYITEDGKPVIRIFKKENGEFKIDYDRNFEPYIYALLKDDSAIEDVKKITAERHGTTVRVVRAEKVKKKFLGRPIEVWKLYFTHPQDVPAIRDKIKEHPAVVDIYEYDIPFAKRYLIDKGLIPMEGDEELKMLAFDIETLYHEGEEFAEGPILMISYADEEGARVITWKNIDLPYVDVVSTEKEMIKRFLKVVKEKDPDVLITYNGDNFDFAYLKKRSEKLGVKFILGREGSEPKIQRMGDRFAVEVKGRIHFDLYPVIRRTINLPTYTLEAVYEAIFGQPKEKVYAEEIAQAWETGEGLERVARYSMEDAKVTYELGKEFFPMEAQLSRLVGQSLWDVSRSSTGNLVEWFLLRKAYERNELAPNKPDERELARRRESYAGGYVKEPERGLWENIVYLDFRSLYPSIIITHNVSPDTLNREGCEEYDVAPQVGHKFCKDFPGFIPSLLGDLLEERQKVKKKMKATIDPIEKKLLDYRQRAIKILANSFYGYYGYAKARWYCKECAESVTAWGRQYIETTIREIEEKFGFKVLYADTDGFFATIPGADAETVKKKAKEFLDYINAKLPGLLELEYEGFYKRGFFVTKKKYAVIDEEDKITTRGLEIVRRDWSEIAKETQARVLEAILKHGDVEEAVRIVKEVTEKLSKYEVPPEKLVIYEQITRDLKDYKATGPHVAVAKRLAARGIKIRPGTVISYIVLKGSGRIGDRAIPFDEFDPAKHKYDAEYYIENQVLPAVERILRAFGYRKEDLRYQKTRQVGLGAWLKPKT
Nature of the test: DNA-templated primer extension by Tgo DNA polymerase. Type of test: biochemical. As to conditions: with FANA ATP, CTP, GTP, DNA primer-template complex. The method, then: It was hypothesized that Thermococcus gorgonarius (Tgo) DNA polymerase could tolerate the 5-1,7-octadiyne modification on uracil and that the enzyme could incorporate FANA nucleotides. To investigate the hypothesis, a primer extension experiment was performed, in which a DNA primer-template complex was enzymatically extended by Tgo DNA polymerase using commercially available FANA nucleotide triphosphates (A, C, and G) as well as C8-alkyne-FANA UTP 11. The DNA template was prepared to contain a 40-nucleotide (nt) random region to avoid sequence bias, as well as a 24-nt poly-AAC tail at the 3′-end, which would not be transcribed, to provide a mobility difference between extension product (76 nt) and DNA template (100 nt) in denaturing polyacrylamide gel electrophoresis (PAGE). The DNA primer was labeled by a 5′-Cy5 fluorophore to allow easy detection of the extended product. A control experiment in which all FANA nucleotide triphosphates comprising natural bases (A, C, G and T) was also conducted to determine the impact of the 5-1,7-octadiyne modification of uracil on the primer extension reactivity. Tgo DNA polymerase was added in various amounts to confirm that the generation of the extended products was mediated by the Tgo DNA polymerase in a dose-dependent fashion. […]

With “5-octa-1,7-diynyluracil 2′-deoxy-2′-fluoroarabino triphosphate [compound 11]”, the “recognition and incorporation as substrate in primer extension” value is given as “produced the full-length products in a polymerase dose-dependent fashion”. Where the note is “listed as C8-alkyne-FANA UTP”, the “recognition and incorporation as substrate in primer extension” value is given as “successfully served as a substrate; also recorded: quantitatively incorporated”.
